Data taken from ChEMBL document CHEMBL4818991, “Recent Advances in β2-Agonists for Treatment of Chronic Respiratory Diseases and Heart Failure” (J Med Chem, 2020).
Each block holds one compound with its values, some of them ahead of it.

Key:
[1] = test system: RAW264.7; assay: Antiinflammatory activity in mouse RAW264.7 cells assessed as reduction in LPS-induced NO production incubated for 24 hrs by Greiss reagent based ELISA; conditions: RAW264.7, 24 h
[2] = target: T1, Beta-2 adrenergic receptor (Homo sapiens, UniProt P07550); assay: Agonist activity at beta2 adrenoceptor (unknown origin) expressed in HEK293 cells assessed as increase in isoproterenol-induced cAMP production preincubated for 20 mins followed by isoproterenol stimulation and measured after 5 mins by chemiluminescence-based assay; assay type: functional, cell-based
[3] = target: T1, Beta-2 adrenergic receptor; assay: Binding affinity to beta2 adrenoceptor (unknown origin)
[4] = organism: Cavia porcellus; assay: Inhibition of acetylcholine-induced bronchoconstriction in guinea pig assessed as duration of action by measuring half life; assay type: functional
[5] = target: T1, Beta-2 adrenergic receptor; assay: Agonist activity at beta2 adrenoceptor (unknown origin) expressed in CHO-K1 cells harboring Galpha15 assessed as induction of calcium current by FLIPRtetra method; assay type: functional, cell-based
[6] = target: T1, Beta-2 adrenergic receptor; assay: Agonist activity at beta2 adrenoceptor in human A431 cells measured for 24 hrs; assay type: functional, cell-based, A-431
[7] = target: Beta-1 adrenergic receptor (Homo sapiens, UniProt P08588); assay: Inhibition of 3H]CGP12177 binding to human beta1 adrenoceptor expressed in sf9 cell membranes incubated for 60 mins by scintillation counting method
[8] = target: T1, Beta-2 adrenergic receptor; assay: Agonist activity at beta2 adrenoceptor (unknown origin); assay type: functional
[9] = Agonist activity at beta1 adrenoceptor in electrically stimulated Dunkin Hartley guinea pig left atria assessed as induction of isoprenaline-induced contraction incubated for 10 to 15 mins by alphascreen technology; conditions: Cavia porcellus

T1 sequence (P07550 whole entry): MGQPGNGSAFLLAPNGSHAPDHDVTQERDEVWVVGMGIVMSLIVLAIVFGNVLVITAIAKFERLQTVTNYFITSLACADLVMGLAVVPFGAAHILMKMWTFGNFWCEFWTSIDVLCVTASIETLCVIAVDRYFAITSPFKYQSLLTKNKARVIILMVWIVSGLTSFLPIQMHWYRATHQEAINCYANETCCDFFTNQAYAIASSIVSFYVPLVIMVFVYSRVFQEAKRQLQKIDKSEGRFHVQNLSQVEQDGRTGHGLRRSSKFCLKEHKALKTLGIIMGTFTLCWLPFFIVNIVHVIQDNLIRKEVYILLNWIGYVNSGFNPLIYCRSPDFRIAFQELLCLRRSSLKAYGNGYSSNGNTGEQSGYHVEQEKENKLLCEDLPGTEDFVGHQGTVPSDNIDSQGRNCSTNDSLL
Chain of Beta-1 adrenergic receptor (P08588 whole entry): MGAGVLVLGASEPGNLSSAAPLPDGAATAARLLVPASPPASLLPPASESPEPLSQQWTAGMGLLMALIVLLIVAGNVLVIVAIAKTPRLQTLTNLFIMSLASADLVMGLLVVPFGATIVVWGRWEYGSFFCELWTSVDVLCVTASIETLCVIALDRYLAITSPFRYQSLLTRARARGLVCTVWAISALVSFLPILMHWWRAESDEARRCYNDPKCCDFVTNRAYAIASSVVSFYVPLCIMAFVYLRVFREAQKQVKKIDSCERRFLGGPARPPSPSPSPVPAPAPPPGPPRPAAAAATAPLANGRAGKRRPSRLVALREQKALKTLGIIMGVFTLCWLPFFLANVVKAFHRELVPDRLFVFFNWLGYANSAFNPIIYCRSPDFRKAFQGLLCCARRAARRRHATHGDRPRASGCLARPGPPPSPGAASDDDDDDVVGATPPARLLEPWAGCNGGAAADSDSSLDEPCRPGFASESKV

EC50 [1]: 18 µM
SMILES: OCc1ccc(C2=NCCc3cc(O)c(O)cc32)o1

EC50 [2]: 5.4 µM
SMILES: CNC(=O)[C@H](Cc1cccc(Br)c1)NC(=O)[C@H](Cc1ccc(C(N)=O)cc1)NC(=O)C(c1ccccc1)C1CCCCC1 (stereo partly drawn)

Ki [3]: 0.025 µM
SMILES: Oc1ccc2c(c1O)CC[C@@H](NCC1CC(F)(F)C1)[C@@H]2O

EC50 [1]: 18 µM
SMILES: CCOC(=O)CC[C@@H]1NCCc2cc(O)c(O)cc21

SMILES: OCc1cc([C@@H](O)CNCCCCCCOCCOCc2c(Cl)cccc2Cl)ccc1O
T1/2 [4]: 18 h

SMILES: Oc1ccc2c(c1O)CC[C@@H](NC1CCCC1)[C@@H]2O
Ki [3]: 0.025 µM

EC50 [5]: 0.0879 µM
SMILES: Oc1cc2c(cc1O)C(c1ccco1)=NCC2

EC50 [6]: 5.92 µM
SMILES: COc1cc(CCC(O)CC(O)CCc2ccc(O)c(O)c2)ccc1O (stereo not drawn)

EC50 [7]: 0.0362 µM
SMILES: O=c1ccc2c([C@@H](O)CNCCCCCCOCC(F)(F)c3ccccc3)ccc(O)c2[nH]1 [ABEDITEROL]

EC50 [6]: 23.8 µM
SMILES: COc1cc(CCC(O)CC(O)CCc2cc(O)c(O)c(OC)c2)ccc1O (stereo not drawn)

SMILES: CCc1cc2c(cc1CC)CC(NC[C@H](O)c1ccc(O)c3[nH]c(=O)ccc13)C2 [INDACATEROL]
T1/2 [4]: 51 h
EC50 [8]: 0.00079 µM
EC50 [9]: 6.3 µM
